Assays:
HCC-PDX model 5 = assay: Patient-derived HCC xenograft model 5, tumor growth; assay type: in vivo, BALB/c nude mice
Description: (§1) The PDX studies were carried out by WuXi AppTec (Shanghai, China). HCC-PDX models were originally established from surgically resected tumor tissue that was implanted in 6–8-week-old female BALB/c nude mice. Animal studies were performed according to the guidelines approved by the Institutional Animal Care and Use Committee of Wuxi AppTec, which follow the guidance of the Association for the Assessment and Accreditation of Laboratory Animal Care. Animals were routinely monitored for their health status and their body weights. Treatment was suspended and/or doses reduced at body weight losses >10%. Animals were euthanized when the tumor size exceeded 2000 mm^3. Pieces from tumor xenografts (∼30 mm^3) from passages 4–8 (ST1) were implanted subcutaneously at the right flank, and tumors were grown to an average size of about 150–200 mm^3. […] Tumor size was measured twice weekly using caliper measurements. Tumor volume (mm^3) was calculated using the formula 0.5 a × b^2, where a and b are the long and short diameters of the tumor, respectively. TGI was assessed either by calculating the ratio of the mean tumor volumes of treated and control groups or by determination of the RTV, which relates tumor volumes at any given day of treatment to the volume at the first treatment day.
(§2) In the syngenic orthotopic H129 model, differences in survival times between groups were analyzed for significance using log-rank tests. Analysis of tumor volumes of the HCC-PDX models was performed with log2-transformed values on defined days of measurement based on the assumption of their log-normal distribution. […] All respective statistical test results were derived from a common linear model that allows for individual variances in the different groups. The adjustment for multiple testing was carried out using Šidák correction at a significance level of 0.05. Back transformation of the mean difference of log2-transformed tumor volumes led to the ratios of the compared groups, whereby ratios of 1 reflect no difference in tumor volumes and ratios below or above 1 reflect smaller or larger tumor volumes, respectively, of the respective second group. The analyses of RTV were carried out in a similar fashion without the log2 transformation of values. Bead-based western data were analyzed (described in [15]) using the MEV 4.8.1 software package. A p-value <0.05 was regarded as significant. All statistical analyses were performed with SAS® 9.4 [34].

HCC-PDX model 10 = assay: Patient-derived HCC xenograft model 10, tumor growth; assay type: in vivo, BALB/c nude mice
Description: as §1, §2

HCC-PDX model 19 = assay: Patient-derived HCC xenograft model 19, tumor growth; assay type: in vivo, BALB/c nude mice
Description: as §1, §2

HCC-PDX model 20 = assay: Patient-derived HCC xenograft model 20, tumor growth; assay type: in vivo, BALB/c nude mice
Description: as §1, §2

HCC-PDX model 61 = assay: Patient-derived HCC xenograft model 61, tumor growth; assay type: in vivo, BALB/c nude mice
Description: as §1, §2

HCC-PDX model 101 = assay: Patient-derived HCC xenograft model 101, tumor growth; assay type: in vivo, BALB/c nude mice
Description: as §1, §2

HCC-PDX model 141 = assay: Patient-derived HCC xenograft model 141, tumor growth; assay type: in vivo, BALB/c nude mice
Description: as §1, §2

HCC-PDX model 159 = assay: Patient-derived HCC xenograft model 159, tumor growth; assay type: in vivo, BALB/c nude mice
Description: as §1, §2

HCC-PDX model 189 = assay: Patient-derived HCC xenograft model 189, tumor growth; assay type: in vivo, BALB/c nude mice
Description: as §1, §2

HCC-PDX model 217 = assay: Patient-derived HCC xenograft model 217, tumor growth; assay type: in vivo, BALB/c nude mice
Description: as §1, §2

[1] = test system: 10 patient-derived HCC xenograft (HCC-PDX) models; assay: Panel of 10 HCC-PDX models, overall response and tolerability; assay type: in vivo, BALB/c nude mice
Description: as §1
In the syngenic orthotopic H129 model, differences in survival times between groups were analyzed for significance using log-rank tests. Analysis of tumor volumes of the HCC-PDX models was performed with log2-transformed values on defined days of measurement based on the assumption of their log-normal distribution. […] All respective statistical test results were derived from a common linear model that allows for individual variances in the different groups. The adjustment for multiple testing was carried out using Šidák correction at a significance level of 0.05. […] Bead-based western data were analyzed (described in [15]) using the MEV 4.8.1 software package. […]

[2] = Steady-state plasma pharmacokinetics after oral dosing for 5 days; assay type: in vivo, BALB/c nu/nu mice
Description: Pharmacokinetic studies were performed in 6–8-week-old female BALB/c nu/nu mice (Charles River, Sulzfeld, Germany). […] Parent compounds and metabolites M-2 and M-5 were analyzed in plasma samples using validated bioanalytical liquid chromatography-tandem mass spectrometry (LC-MS/MS) methods according to an experimental protocol described earlier. PK parameters, namely the AUC(0–24)ss and Cmax, were calculated from plasma concentrations using a non-compartmental analysis.

[3] = day 28, R 10 / S 30 mg/kg/day oral starting dose
[4] = plasma analyte after oral sorafenib tosylate 30 mg/kg/day (21.9 mg/kg/day sorafenib) for 5 days

CNC(=O)c1cc(Oc2ccc(NC(=O)Nc3ccc(Cl)c(C(F)(F)F)c3)cc2)ccn1 [Sorafenib]
Mean TV (HCC-PDX model 5; [3]): 134.44 mm^3 | log TV Differences of least square-means, compound vs vehicle (HCC-PDX model 5; day 28, log2-transformed TV): -24,884 | RTV Differences of least square-means, compound vs vehicle (HCC-PDX model 5; day 46): -54,048 | RTV (HCC-PDX model 5; end of study, day 46): 1.74 | Mean TV (HCC-PDX model 10; day 12, R 10 / S 30 mg/kg/day oral): 607.16 mm^3 | log TV Differences of least square-means, compound vs vehicle (HCC-PDX model 10; day 12, log2-transformed TV): -17,966 | RTV (HCC-PDX model 10; end of study (RTV analysis day R 40, S 30)): 13.39 | Mean TV (HCC-PDX model 19; [3]): 496.54 mm^3 | log TV Differences of least square-means, compound vs vehicle (HCC-PDX model 19; day 28, log2-transformed TV): -0.6887 | RTV Differences of least square-means, compound vs vehicle (HCC-PDX model 19; day 42): -29.3 | RTV (HCC-PDX model 19; end of study, day 42): 4.70 | Mean TV (HCC-PDX model 20; day 21, R 10 / S 30 mg/kg/day oral): 737.74 mm^3 | log TV Differences of least square-means, compound vs vehicle (HCC-PDX model 20; day 21, log2-transformed TV): -0.3573 | RTV Differences of least square-means, compound vs vehicle (HCC-PDX model 20; day 42): -12.2 | RTV (HCC-PDX model 20; end of study, day 42): 10.55 | Mean TV (HCC-PDX model 61; day 25, R 10 / S 30 mg/kg/day oral): 424.86 mm^3 | RTV (HCC-PDX model 61; end of study (RTV analysis day R 42, S 36)): 5.28 | Mean TV (HCC-PDX model 101; [3]): 416.97 mm^3 | RTV (HCC-PDX model 101; end of study, day 42): 5.37 | Mean TV (HCC-PDX model 141; [3]): 139.51 mm^3 | RTV (HCC-PDX model 141; end of study, day 42): 2.16 | Mean TV (HCC-PDX model 159; [3]): 1144.22 mm^3 | log TV Differences of least square-means, compound vs vehicle (HCC-PDX model 159; day 28, log2-transformed TV): -0.3943 | RTV (HCC-PDX model 159; end of study, day 35): 9.73 | RTV Differences of least square-means, compound vs vehicle (HCC-PDX model 189; day 21): -29,028 | Mean TV (HCC-PDX model 189; day 21, R 10 / S 30 mg/kg/day oral starting dose): 351.96 mm^3 | log TV Differences of least square-means, compound vs vehicle (HCC-PDX model 189; day 21, log2-transformed TV): -10,604 | RTV (HCC-PDX model 189; end of study, day 21): 2.66 | Mean TV (HCC-PDX model 217; day 13, R 10 / S 30 mg/kg/day oral): 1087.45 mm^3 | log TV Differences of least square-means, compound vs vehicle (HCC-PDX model 217; day 13, log2-transformed TV): -10,119 | RTV (HCC-PDX model 217; end of study (RTV analysis day R 24, S 20)): 10.84 | Models with significant tumor growth inhibition ([1]; 10 HCC-PDX models, regorafenib 10, sorafenib 30 mg/kg/day oral): 7/10 | Dose reductions and/or treatment interruptions ([1]; HCC-PDX models, sorafenib compared with regorafenib): more often | AUC(0–24)ss (percent of total) ([2]; after oral sorafenib tosylate 30 mg/kg/day for 5 days, total = molar sum of sorafenib and M-2): 99% of total | AUC(0–24)ss [2, 4]: 177 µM·h | Cmax [2, 4]: 23.9 µM | Estimated Cmax ([2]; sorafenib 30 mg/kg/day related to free base (HCC-PDX study dose), assuming dose linearity): 33.6 µM | Cumulated maximum concentration (Cmax) ([2]; sorafenib tosylate 30 mg/kg once daily for 5 days, parent plus metabolites): 24.5 µM
